This passage reports inhibition results from ChEMBL document CHEMBL3727350, “Agents and methods for treating ischemic and other diseases” (2014).

The source made the active and inactive calls. The rule behind the calls is not given here.

The first test deals with Transient receptor potential cation channel subfamily M member 7 (Mus musculus) (UniProt Q923J1). Put plainly: Inhibition of Tet-induced Flag-tagged mouse TRPM7 expressed in HEK293 cells assessed as inhibition of channel-mediated cell death in presence of Mg2+ incubated for 24 to 48 hrs by propidium iodide uptake assay. On the set-up: concentration or dose not given beside the values. The test is classed as cell-based.
Sequence of Transient receptor potential cation channel subfamily M member 7 (Mus musculus) (Q923J1 whole entry): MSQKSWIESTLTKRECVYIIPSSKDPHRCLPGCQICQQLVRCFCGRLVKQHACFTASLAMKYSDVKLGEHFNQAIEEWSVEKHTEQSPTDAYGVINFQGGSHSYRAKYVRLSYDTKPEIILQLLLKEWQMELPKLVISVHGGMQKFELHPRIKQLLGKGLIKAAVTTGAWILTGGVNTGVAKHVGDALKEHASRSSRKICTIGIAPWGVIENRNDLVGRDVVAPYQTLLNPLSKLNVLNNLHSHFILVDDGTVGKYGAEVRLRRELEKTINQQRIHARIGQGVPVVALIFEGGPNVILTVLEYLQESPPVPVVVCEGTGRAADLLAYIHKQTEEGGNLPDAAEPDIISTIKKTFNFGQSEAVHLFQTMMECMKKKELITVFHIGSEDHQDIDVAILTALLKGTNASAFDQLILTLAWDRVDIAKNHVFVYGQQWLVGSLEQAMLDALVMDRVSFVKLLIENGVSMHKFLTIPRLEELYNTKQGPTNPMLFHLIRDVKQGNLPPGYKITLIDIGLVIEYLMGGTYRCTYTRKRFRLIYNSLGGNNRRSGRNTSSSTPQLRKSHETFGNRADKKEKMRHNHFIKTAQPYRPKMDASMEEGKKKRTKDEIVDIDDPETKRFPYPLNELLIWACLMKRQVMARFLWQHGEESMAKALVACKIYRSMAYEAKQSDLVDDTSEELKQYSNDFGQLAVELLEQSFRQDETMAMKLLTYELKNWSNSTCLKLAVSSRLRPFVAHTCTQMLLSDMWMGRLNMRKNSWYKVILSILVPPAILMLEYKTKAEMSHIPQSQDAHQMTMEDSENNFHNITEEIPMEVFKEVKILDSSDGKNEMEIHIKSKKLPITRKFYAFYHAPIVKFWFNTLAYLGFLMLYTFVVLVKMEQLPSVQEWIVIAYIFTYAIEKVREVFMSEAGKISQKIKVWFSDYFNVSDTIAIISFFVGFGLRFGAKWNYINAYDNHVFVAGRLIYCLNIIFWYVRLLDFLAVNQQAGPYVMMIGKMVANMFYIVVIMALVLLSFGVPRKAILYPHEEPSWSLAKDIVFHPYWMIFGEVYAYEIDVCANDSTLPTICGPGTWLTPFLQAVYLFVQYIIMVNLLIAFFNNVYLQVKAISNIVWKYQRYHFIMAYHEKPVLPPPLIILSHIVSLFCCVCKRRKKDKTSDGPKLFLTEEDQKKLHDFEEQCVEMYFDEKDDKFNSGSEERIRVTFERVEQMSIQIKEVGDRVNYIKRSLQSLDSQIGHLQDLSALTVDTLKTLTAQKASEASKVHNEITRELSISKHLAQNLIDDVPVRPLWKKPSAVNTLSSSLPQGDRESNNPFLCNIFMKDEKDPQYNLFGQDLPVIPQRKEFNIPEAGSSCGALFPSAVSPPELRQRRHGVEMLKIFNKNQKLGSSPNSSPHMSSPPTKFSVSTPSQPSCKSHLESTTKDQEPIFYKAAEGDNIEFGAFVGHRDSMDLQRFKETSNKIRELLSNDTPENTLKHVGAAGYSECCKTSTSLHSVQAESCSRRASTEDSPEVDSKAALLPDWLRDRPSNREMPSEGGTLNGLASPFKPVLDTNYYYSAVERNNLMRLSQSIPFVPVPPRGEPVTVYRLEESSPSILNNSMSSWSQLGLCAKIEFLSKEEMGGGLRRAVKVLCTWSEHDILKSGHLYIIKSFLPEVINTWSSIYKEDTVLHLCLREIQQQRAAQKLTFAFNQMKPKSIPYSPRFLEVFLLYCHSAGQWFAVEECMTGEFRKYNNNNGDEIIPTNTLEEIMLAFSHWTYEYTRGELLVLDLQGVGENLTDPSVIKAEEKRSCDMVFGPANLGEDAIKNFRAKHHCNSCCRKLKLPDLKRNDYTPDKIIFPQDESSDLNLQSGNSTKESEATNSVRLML
Settings: not given
Broadly, the inhibition is the change of the read-out against control, counted positive when it falls. Consider `CCn1cnc2c(Nc3cccc(Cl)c3)nc(N[C@@H]3CCCC[C@@H]3N)nc21` (relative stereo), for which the inhibition result was “Dose-dependent effect”.

Take `COc1ccc(C[C@H]2NC[C@H](O)[C@H]2OC(C)=O)cc1`: the inhibition entry was “Dose-dependent effect”.

With `CC[C@H]1CN2CCc3cc(OC)c(OC)cc3[C@@H]2C[C@@H]1C[C@H]1NCCc2cc(OC)c(OC)cc21`, the inhibition result was “Active”.

Regarding `C=C(C)[C@@H]1CC[C@]2(C(=O)O)CC[C@]3(C)[C@H](CC[C@@H]4[C@@]5(C)CC[C@H](O)C(C)(C)[C@@H]5CC[C@]43C)[C@@H]12`, the inhibition entry was “Dose-dependent effect”.

For the compound `O=C1C(c2ccccc2)=C(O)C2C=CC=C3c4ccccc4N1C32` (stereo unspecified), the inhibition result was “Active”.

Still in this test, the particulars now being: concentration not given here.
As for `CC(C)(C)c1ccc(N2C(=N)SCC2=O)cc1`, the inhibition was determined as 40%.

As for `Cc1[nH]c2ccccc2c1CN1CCN(c2ccc(F)cc2)CC1`, the inhibition was below 30%.

`N#Cc1ccc(NC(=O)Nc2ccc(OCc3ccccc3)cc2)cc1`: the inhibition is 80%.

Regarding `C#CCSc1nc(-c2ccc(C(F)(F)F)cc2)nc(C)c1C(C)=O`, the inhibition was below 30%.

Regarding `CC(=O)Nc1ccc(S(=O)(=O)Nc2ccccc2C#N)cc1`, the inhibition is below 30%.

As to `COc1c(C(C)(C)C)cc(/N=C/c2ccccc2O)c(C)c1/N=C/c1ccccc1O`, the inhibition was 60%.

`CCOC(=O)C(=CNNS(=O)(=O)c1cc(C(F)(F)F)cc(C(F)(F)F)c1)C(=O)OCC`: the inhibition was determined as 40%.

Take `Cc1cc(NS(=O)(=O)c2cccs2)[nH]n1`: the inhibition was below 30%.

Turning to `N#Cc1ccc2[nH]cc(CCN(Cc3ccccc3)Cc3ccccc3)c2c1`, the inhibition is below 30%.

For `Cc1ccc(OC/C(N)=N/OC(=O)c2cc(C)on2)cc1`, the inhibition is below 30%.

Regarding `Cc1c(-c2nc(-c3ccc(C(C)(C)C)cc3)no2)n(C)oc1=O`, the inhibition was below 30%.

Regarding `CC(C)(C)c1ccc(NC(=O)/C=C/C(=O)O)cc1`, the inhibition was below 30%.

In the case of `Cc1ccc(C(=O)Nc2ccc3c(c2)CS(=O)(=O)C3)cc1`, the inhibition is below 30%.

Take `CC1CN=C(N(CCc2ccccc2)C(=O)Nc2ccc(Cl)cc2)S1` (stereo unspecified): the inhibition was below 30%.

For the compound `O=C(NNC(=S)Nc1cc(Cl)ccc1Cl)C(O)(c1ccccc1)c1ccccc1`, the inhibition worked out at 50%.

Consider `O=C(CCSCc1ccc(Cl)cc1)Nc1ccc(Cl)cc1`, for which the inhibition is 60%.

In the case of `COc1ccc2c(c1)CCCN2C(=O)c1sc2ccccc2c1Cl`, the inhibition came to 60%.

For `Oc1c(Cl)cc(Cl)cc1/C=N/c1ccc(Cl)cn1`, the inhibition was determined as 40%.

On to `CC(=O)/C(C#N)=C/c1ccco1`, for which the inhibition is below 30%.

On to `CCOC(C)CNC(=S)N/N=C/c1cccnc1` (stereo unspecified), for which the inhibition is below 30%.

On to `Cc1ccc(Cn2nc(C(=O)O/N=C(\N)c3cccc(C(F)(F)F)c3)cc2C)cc1`, for which the inhibition is below 30%.

With `Cc1onc(-c2ccccc2Cl)c1C(=O)NNc1cccc(C(F)(F)F)n1`, the inhibition was below 30%.

As to `Cc1cc(O)nc2c1c(-c1ccccc1)nn2C`, the inhibition is below 30%.

For `O=C(Nc1ccc(CN2CCS(=O)(=O)CC2)cc1)c1ccc(C(F)(F)F)cc1`, the inhibition stood at 40%.

For `O=S1(=O)CC=C(S(=O)(=O)c2ccccc2)C1`, the inhibition is below 30%.

Consider `O=C(Nc1ccc(Cl)cc1)Nc1ccccc1Oc1ccccc1`, for which the inhibition stood at 50%.

For the compound `O=C(O/N=C(\Cn1nnc(N2CCCCC2)n1)c1ccc(Cl)cc1)c1ccccc1Cl`, the inhibition was below 30%.

Turning to `CC(C)(C)OC(=O)N1CCN(c2ccc(NS(=O)(=O)c3ccc(Cl)cc3)cn2)CC1`, the inhibition was below 30%.

As for `Cc1ccc(Cn2nc(C(=O)O)cc2C)cc1`, the inhibition is below 30%.

Regarding `CCOC(=O)C(=CNNC(=O)c1cnn(-c2ccc([N+](=O)[O-])cc2)c1C(F)(F)F)C(=O)OCC`, the inhibition turned out to be 90%.

As for `NNC(=O)CSc1ccccc1[N+](=O)[O-]`, the inhibition came to 40%.

In the case of `O=[N+]([O-])c1ccc(-n2ncc(-c3nc(-c4ccc(Cl)cc4)no3)c2C(F)(F)F)cc1`, the inhibition is below 30%.

In the case of `Cc1c(C)c(C)c(CN2CCOC(c3ccccc3)C2C)c(C)c1C` (stereo unspecified), the inhibition was below 30%.

In the case of `CC(C)NC(=O)c1cc(-c2cccs2)on1`, the inhibition worked out at 30%.

For `N=C(NS(=O)(=O)c1cc(Cl)c(Oc2ccc([N+](=O)[O-])cc2Cl)c(Cl)c1)c1cccnc1`, the inhibition is 70%.

As to `CS(=O)(=NS(=O)(=O)c1ccc(Cl)cc1Cl)c1ccc(Cl)cc1` (stereo unspecified), the inhibition was below 30%.

In the case of `Cc1ccc(C(=O)Nc2ccc(Oc3ccc(C(C)(C)C)cc3)nc2)cc1`, the inhibition came to 70%.

Take `CC12CCC(C(=O)N3CCSCC3)(OC1=O)C2(C)C` (stereo unspecified): the inhibition is below 30%.

Consider `N#CC(C#N)=CNc1cc(C(F)(F)F)ccc1N1CCCC1`, for which the inhibition was 40%.

On to `Fc1ccc(CN2CCN(Cc3c[nH]c4ccccc34)CC2)cc1`, for which the inhibition is 70%.

Take `O=S(=O)(c1cc(Cl)sc1Cl)N1CCN(CCc2ccccc2)CC1`: the inhibition is below 30%.

For `O=C(Nc1ccc(Cl)cc1)OCc1noc(-c2cccs2)n1`, the inhibition stood at 70%.

Turning to `Brc1cn[nH]c1/C=N/Nc1nc(-c2ccccc2)cs1`, the inhibition is 50%.

With `COc1cc2c(cc1OC)C(c1cccc(C)c1)NCC2` (stereo unspecified), the inhibition turned out to be 60%.

As for `O=C(/C(=N/Nc1ccc([N+](=O)[O-])cc1)C(=O)C(F)(F)F)c1cccs1`, the inhibition worked out at 40%.

Consider `CC(C)c1ccc(-c2cc(=O)c3ccccc3o2)cc1`, for which the inhibition is 80%.

As to `CC[n+]1c(/C=C/c2ccc(OC)cc2)ccc2ccccc21`, the inhibition is below 30%.

For the compound `CCOC(=O)c1c(-n2c(C)ccc2C)sc2c1CCCC2`, the inhibition is 70%.

As for `CCCCCCCC(=O)NC1=NC2c3ccc(OC)cc3CCC2S1` (stereo unspecified), the inhibition is 70%.

For the compound `CN(C)c1cccc(N(C)C)c1CNC(=O)Nc1ccccc1`, the inhibition is below 30%.

Consider `CCCCCc1c(COC)c2ccc(O)cc2oc1=O`, for which the inhibition was found to be 50%.

For the compound `COc1cc2c(cc1OC)C(c1cccc(C)c1)N(C(=O)c1sc3ccccc3c1Cl)CC2` (stereo unspecified), the inhibition was determined as 40%.

Turning to `CC(=O)CC(O)c1ccncc1` (stereo unspecified), the inhibition is below 30%.

For the compound `O=C(O)c1cc(C(F)(F)F)cc(C(F)(F)F)c1`, the inhibition was below 30%.

On to `CC(C)(C)NC(=O)CSc1nnc([C@H](Cc2ccccc2)NC(=O)OC(C)(C)C)o1`, for which the inhibition stood at 30%.

Regarding `O=C(Nc1ccc2ccccc2n1)c1ccc(Cl)cc1`, the inhibition came out at 50%.

Regarding `NCCCNc1ccc2c3c(nn2CCNCCO)-c2c(O)ccc(O)c2C(=O)c13`, the inhibition worked out at 80%.

For the compound `Cc1ccccc1NC(=O)NCc1cccs1`, the inhibition was determined as 60%.

Turning to `O=[N+]([O-])c1ccc(Nc2cccc(F)c2)c2nonc12`, the inhibition was found to be 40%.

As to `O=C1CC2Sc3ccccc3N=C2N1Cc1ccccn1` (stereo unspecified), the inhibition was below 30%.

`CN1c2ccsc2C(O)=C(C(=O)Nc2cccc(Cl)c2)S1(=O)=O`: the inhibition is below 30%.

Regarding `N#CC1=C(N)Oc2c3c(c4ccccc4c2C1c1ccc(C(F)(F)F)cc1)C(c1ccc(C(F)(F)F)cc1)C(C#N)=C(N)O3` (stereo unspecified), the inhibition is below 30%.

`COc1ccc(CCN2C(=O)CS/C2=N\c2ccc(C(C)(C)C)cc2)cc1OC`: the inhibition is below 30%.

As to `COc1cc2c(cc1OC)C(C(=O)c1sc3ccccc3c1Cl)=NCC2`, the inhibition is 80%.

With `Cc1onc(-c2c(Cl)cccc2Cl)c1C(=O)Nc1cccc2nsnc12`, the inhibition turned out to be 30%.

Turning to `COc1ccccc1NC(=O)Nc1nn(C)c2cccc(N(C)C)c12`, the inhibition was determined as 60%.

Regarding `CC(C)(C)[C@H](CO)/N=C/c1cccc(/C=N/[C@H](CO)C(C)(C)C)n1`, the inhibition is below 30%.

Turning to `N#Cc1ccc2c(c1)Sc1ccccc1N2`, the inhibition was determined as 60%.

Take `COc1ccc2nnc(-c3ccc(C(F)(F)F)cc3)n2n1`: the inhibition was below 30%.

Turning to `CN(C)C=O.O=C(Nc1nnc(Sc2ccnc3cc(Cl)ccc23)s1)c1sc2ccccc2c1Cl`, the inhibition is 80%.

Turning to `COC(=O)c1scc(S(=O)(=O)C(C)C)c1N/N=C(\C#N)C(=O)c1ccccc1`, the inhibition is below 30%.

In the case of `Cc1ccc(C(=O)/C=C/C(=O)O)c(C)c1F`, the inhibition came to 60%.

As for `CC(C)NC(=S)Nc1ccc2c(c1)S(=O)(=O)C=C2`, the inhibition is below 30%.

As for `Cc1ccc(S(=O)(=O)NCCN2CCN(C(=O)OC(C)(C)C)CC2)cc1`, the inhibition was below 30%.

`CNC(=O)c1cc([N+](=O)[O-])cc2c1-c1ccc([N+](=O)[O-])cc1C2=O`: the inhibition is below 30%.

`CC(=O)N1N=C(c2ccccc2O)CC1c1ccc(Cl)cc1Cl` (stereo unspecified): the inhibition was below 30%.

Take `N#Cc1ccc(/C=N/Nc2ncc(-c3ccc4c(c3)OCCCO4)s2)cc1`: the inhibition was found to be 70%.

Turning to `COc1ccc(-c2n[nH]cc2CN2CCN(c3ccccc3OC)CC2)cc1`, the inhibition is below 30%.

`CCCCc1ccc(NC(=O)CSc2nc(-c3ccccc3)c(-c3ccccc3)o2)c(C)c1`: the inhibition is below 30%.

With `Cc1nc(-c2ccc(S(=O)(=O)Nc3cccc(S(N)(=O)=O)c3)s2)cs1`, the inhibition was below 30%.

In the case of `CN1CCN(NC(NC(=O)c2cccnc2)(C(F)(F)F)C(F)(F)F)CC1`, the inhibition is below 30%.

For `NC(=O)C1CCN(CCS(=O)(=O)c2ccccc2)CC1`, the inhibition worked out at 30%.

Regarding `COc1ccc(C(=O)Nc2c(-c3ccc(Br)cc3)c(C(F)(F)F)nn2C)cc1OC`, the inhibition was below 30%.

As for `CC(C)NC(=O)n1ccc(-c2nn(-c3ccc(F)cc3)ccc2=O)n1`, the inhibition was below 30%.

As for `CC(c1ccco1)N(C(=O)c1sc2ccccc2c1Cl)c1ccccn1` (stereo unspecified), the inhibition is below 30%.

With `Cc1ccc(Oc2ccc(C(F)(F)F)cc2[N+](=O)[O-])c2c1CCC2`, the inhibition was below 30%.

Take `O=C(Nc1ccc(N2CCC(C(F)(F)F)CC2)nc1)c1ccc(OC(F)(F)F)cc1`: the inhibition was below 30%.

As to `O=C(/C=C/c1cccs1)NC(=S)Nc1ccccc1Cl`, the inhibition was below 30%.

As for `CC(=O)Nc1ccc(S(=O)(=O)Nc2ccccc2Oc2ccc(Cl)cc2Cl)cc1`, the inhibition turned out to be 80%.

Turning to `COc1ccccc1C1CCN(Cc2c[nH]nc2-c2ccccc2)CC1`, the inhibition is 80%.

Turning to `Cc1nc(-c2ccc(C(F)(F)F)cc2)nc(O)c1Cl`, the inhibition is below 30%.
